Assay results as given in US4845195A, “Inhibitor of ribonucleotide reductase” (Merck & Co., Inc., priority 1987, dated 1989).
Ends that are not written are not given here. Peptide text beside a SMILES is read from it. * marks the point of attachment. Desaminotyrosyl = O=C(CCc1ccc(O)cc1)*

Tests used:
[1] = target: T1, Herpes Simplex Virus Ribonucleotide Reductase (Human herpesvirus 2, UniProt P89462); assay: Assay of Inhibition of HSV RR Activity (reduction of tritiated cytidine-diphosphate); type: biochemical, HSV2 Strain 186; details: 30 minutes at 37°C, dithiothreitol and MgCl2, enzyme not preincubated with inhibitor; read-out: IC50 (μM concentration of peptide producing 50% inhibition of enzyme activity)
T1 construct: HSV RR was purified from Baby Hamster Kidney cells that were cultured with HSV2 Strain 186; made in house; host or cells: Baby Hamster Kidney cells infected with HSV2 Strain 186
T1 sequence (P89462 whole entry): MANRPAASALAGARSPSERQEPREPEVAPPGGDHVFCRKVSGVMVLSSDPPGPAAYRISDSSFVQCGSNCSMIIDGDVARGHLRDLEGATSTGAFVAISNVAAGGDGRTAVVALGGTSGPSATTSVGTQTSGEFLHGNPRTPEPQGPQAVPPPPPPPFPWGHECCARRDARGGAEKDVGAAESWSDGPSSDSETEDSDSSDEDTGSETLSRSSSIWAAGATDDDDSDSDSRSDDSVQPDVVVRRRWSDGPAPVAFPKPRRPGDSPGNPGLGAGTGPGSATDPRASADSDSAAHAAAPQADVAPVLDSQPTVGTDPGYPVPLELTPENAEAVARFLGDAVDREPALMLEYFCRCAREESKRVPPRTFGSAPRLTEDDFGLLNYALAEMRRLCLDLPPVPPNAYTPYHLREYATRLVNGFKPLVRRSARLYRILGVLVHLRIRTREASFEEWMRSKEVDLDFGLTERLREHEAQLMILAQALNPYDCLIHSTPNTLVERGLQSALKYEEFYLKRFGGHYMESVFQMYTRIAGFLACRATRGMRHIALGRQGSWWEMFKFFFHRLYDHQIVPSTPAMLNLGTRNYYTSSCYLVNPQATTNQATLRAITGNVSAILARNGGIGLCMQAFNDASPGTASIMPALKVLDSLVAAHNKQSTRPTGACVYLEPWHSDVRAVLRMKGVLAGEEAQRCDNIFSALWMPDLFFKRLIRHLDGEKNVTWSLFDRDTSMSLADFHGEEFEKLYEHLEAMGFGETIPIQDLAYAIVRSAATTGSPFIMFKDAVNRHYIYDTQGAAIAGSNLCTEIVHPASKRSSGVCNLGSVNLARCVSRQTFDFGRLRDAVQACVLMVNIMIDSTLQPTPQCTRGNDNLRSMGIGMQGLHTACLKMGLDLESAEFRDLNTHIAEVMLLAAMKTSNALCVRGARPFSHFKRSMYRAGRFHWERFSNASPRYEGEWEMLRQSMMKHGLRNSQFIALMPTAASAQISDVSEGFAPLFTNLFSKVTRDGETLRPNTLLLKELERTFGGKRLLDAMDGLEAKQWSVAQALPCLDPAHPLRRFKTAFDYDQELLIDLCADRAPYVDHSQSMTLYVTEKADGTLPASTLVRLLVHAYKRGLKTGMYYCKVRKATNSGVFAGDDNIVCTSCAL
Procedure: After infection, cells were harvested and lysed. Crude HSV RR was prepared as described by Huszar et al., J. Virol.
HSV RR activity was determined as the ability of the enzyme to catalyze the reduction of tritiated cytidine-diphosphate to deoxyribo-cytidinediphosphate in 30 minutes at 37°C. in the presence of dithiothreitol and MgCl2. Activity of oligopeptide inhibitors was determined by adding them to the reaction mix at the beginning of the incubation. Enzyme was not preincubated with inhibitor.
These were analyzed for amino acid composition and in some cases sequenced. Dry peptides were resuspended in 100 mM HEPES (pH 8.0) at about 2mM, relyophilized, and stored in aliquots at -80° C. Immediately prior to use they were rehydrated with distilled H2 O and centrifuged to remove any undissolved peptide.

[2] = target: ribonucleotide reductase enzyme of herpes simplex virus (Human herpesvirus 1, UniProt P08543); details: Nature 321:439-441 and 441-443 (1986); cited from earlier work
Sequence of ribonucleotide reductase enzyme of herpes simplex virus (P08543 whole entry): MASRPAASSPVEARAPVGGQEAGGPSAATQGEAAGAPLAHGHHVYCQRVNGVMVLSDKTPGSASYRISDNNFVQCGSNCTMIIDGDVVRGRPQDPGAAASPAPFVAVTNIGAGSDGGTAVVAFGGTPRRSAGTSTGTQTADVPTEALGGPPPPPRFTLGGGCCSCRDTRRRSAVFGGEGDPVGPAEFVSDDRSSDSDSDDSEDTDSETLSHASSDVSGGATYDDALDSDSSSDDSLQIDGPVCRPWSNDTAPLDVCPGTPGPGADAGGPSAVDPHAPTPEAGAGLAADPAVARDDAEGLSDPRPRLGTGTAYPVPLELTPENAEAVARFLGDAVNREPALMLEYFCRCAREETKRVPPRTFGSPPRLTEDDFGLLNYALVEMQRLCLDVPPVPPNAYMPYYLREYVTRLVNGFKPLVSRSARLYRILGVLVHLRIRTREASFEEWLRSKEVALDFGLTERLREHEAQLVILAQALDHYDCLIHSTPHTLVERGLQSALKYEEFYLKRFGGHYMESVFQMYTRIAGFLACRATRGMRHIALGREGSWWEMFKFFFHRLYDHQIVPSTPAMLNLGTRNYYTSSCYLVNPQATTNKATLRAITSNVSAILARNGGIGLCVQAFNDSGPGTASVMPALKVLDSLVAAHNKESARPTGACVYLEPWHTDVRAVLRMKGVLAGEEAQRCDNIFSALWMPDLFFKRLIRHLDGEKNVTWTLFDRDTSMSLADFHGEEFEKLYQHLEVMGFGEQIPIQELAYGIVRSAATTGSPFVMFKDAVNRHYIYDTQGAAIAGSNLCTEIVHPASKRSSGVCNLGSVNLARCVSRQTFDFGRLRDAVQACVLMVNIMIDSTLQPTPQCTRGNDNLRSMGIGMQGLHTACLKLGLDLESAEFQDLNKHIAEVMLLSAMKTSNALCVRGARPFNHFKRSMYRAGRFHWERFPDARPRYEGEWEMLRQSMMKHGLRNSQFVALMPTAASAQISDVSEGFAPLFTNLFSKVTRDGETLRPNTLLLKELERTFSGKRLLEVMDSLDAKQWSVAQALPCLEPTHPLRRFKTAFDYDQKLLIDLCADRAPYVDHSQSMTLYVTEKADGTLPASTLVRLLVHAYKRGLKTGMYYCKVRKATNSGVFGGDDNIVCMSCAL

Molecule | IC50 [1] [µM] | inhibition of the activity of the enzyme in vitro [2]
CC(=O)N[C@@H](Cc1ccc(O)cc1)C(=O)N[C@@H](C)C(=O)NCC(=O)N[C@@H](C)C(=O)N[C@H](C(=O)N[C@H](C(=O)N[C@@H](CC(N)=O)C(=O)N[C@@H](CC(=O)O)C(=O)N[C@@H](CC(C)C)C(=O)O)C(C)C)C(C)C [AcYAGAVVNDL] | 5 | –
CC(C)C[C@H](NC(=O)[C@H](CC(=O)O)NC(=O)[C@H](CC(N)=O)NC(=O)[C@@H](NC(=O)[C@@H](N)C(C)C)C(C)C)C(=O)O [VVNDL, Val Val Asn Asp Leu] | 250 | –
CC(C)C[C@H](NC(=O)[C@H](CC(=O)O)NC(=O)[C@H](CC(N)=O)NC(=O)[C@@H](NC(=O)[C@@H](NC(=O)[C@H](C)NC(=O)CNC(=O)[C@H](C)NC(=O)[C@@H](N)Cc1ccc(O)cc1)C(C)C)C(C)C)C(=O)O [YAGAVVNDL, Tyr Ala Gly Ala Val Val Asn Asp Leu, reference compound] | 10 | –
CC(C)C[C@H](NC(=O)[C@H](CC(=O)O)NC(=O)[C@H](CC(N)=O)NC(=O)[C@@H](NC(=O)[C@@H](NC(=O)[C@H](C)NC(=O)CNC(=O)[C@H](C)NC(=O)[C@@H](N)Cc1ccc(O)cc1)C(C)C)C(C)C)C(N)=O [YAGAVVNDL--NH2, YAGAVVNDL-NH2] | 75 | –
CC(C)C[C@H](NC(=O)[C@H](CC(=O)O)NC(=O)[C@H](CC(N)=O)NC(=O)[C@@H](NC(=O)[C@@H](NC(=O)[C@H](C)NC(=O)CNC(=O)[C@H](C)NC(=O)CCc1ccc(O)cc1)C(C)C)C(C)C)C(=O)O [desNH2--YAGAVVNDL, desNH2-YAGAVVNDL] (Desaminotyrosyl-AGAVVNDL-OH) | 20 | –
AGAVVNDL [AGAVVNDL] | 80 | –
AVVNDL [AVVNDL] | 51 | –
Ac-AVVNDL [AcAVVNDL] | 87 | –
Ac-GAVVNDL [AcGAVVNDL] | 75 | –
FPLSLMSTDKHTNFFECRSTSYAGAVVNDL | 8 | –
GAVVNDL [GAVVNDL] | 70 | –
STSYAGAVVNDL [STSYAGAVVNDL] | 17 | –
SYAGAVVNDL [SYAGAVVNDL] | 17 | –
TSYAGAVVNDL [TSYAGAVVNDL] | 17 | –
Tyr GVly Ala Val Val Asn Asp Leu | – | inhibited
